Results published in ChEMBL document CHEMBL1201862, “PubChem BioAssay data set” (2004).
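Compound exposure: 48 hours, 5 concentrations, 96-well plates. Here, GI50 denotes the concentration required for 50% inhibition of growth.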 Active and inactive are the calls of the source. No stated cut-off is given here; in the data, active = GI50 up to about 1.1 µM and inactive = higher.

Columns and labels:
Test in all cases: NCI anticancer screen, dose series, 48 h
786-0 = system: 786-0
A498 = system: A498
A549 = system: A549
ACHN = system: ACHN
CAKI-1 = system: CAKI-1
CCRF-CEM = system: CCRF-CEM
COLO 205 = system: COLO 205
DLD-1 = system: DLD-1
DMS-114 = system: DMS-114
DMS-273 = system: DMS-273
EKVX = system: EKVX
HCC 2998 = system: HCC 2998
HCT-116 = system: HCT-116
HCT-15 = system: HCT-15
HL-60 = system: HL-60
HOP-18 = system: HOP-18
HOP-62 = system: HOP-62
HOP-92 = system: HOP-92
HT-29 = system: HT-29
IGROV-1 = system: IGROV-1
K562 = system: K562
KM-20L2 = system: KM-20L2
KM12 = system: KM12
LXFL 529 = system: LXFL 529
M14 = system: M14
M19-MEL = system: M19-MEL
MOLT-4 = system: MOLT-4
Malme-3M = system: Malme-3M
NCI-H226 = system: NCI-H226
NCI-H23 = system: NCI-H23
NCI-H460 = system: NCI-H460
NCI-H522 = system: NCI-H522
OVCAR-4 = system: OVCAR-4
OVCAR-5 = system: OVCAR-5
OVCAR-8 = system: OVCAR-8
RPMI-8226 = system: RPMI-8226
RXF 393 = system: RXF 393
SF-268 = system: SF-268
SF-295 = system: SF-295
SF-539 = system: SF-539
SK-MEL-28 = system: SK-MEL-28
SK-MEL-2 = system: SK-MEL-2
SK-MEL-5 = system: SK-MEL-5
SK-OV-3 = system: SK-OV-3
SN12C = system: SN12C
SNB-19 = system: SNB-19
SNB-75 = system: SNB-75
SNB-78 = system: SNB-78
SR = system: SR
TK-10 = system: TK-10
U-251 = system: U-251
UACC-257 = system: UACC-257
UACC-62 = system: UACC-62
UO-31 = system: UO-31
XF498 = system: XF498
LOX IMVI = system: LOX IMVI
MCF7 = system: MCF7
NCI/ADR-RES = system: NCI/ADR-RES
OVCAR-3 = system: OVCAR-3
SW-620 = system: SW-620

## COC(=O)[C@@]12OC[C@]34C([C@@H](O)C1O)[C@@]1(C)CC(=O)C(O)=C(C)C1C[C@H]3OC(=O)[C@H](OC(=O)/C=C(/c1ccccc1)C(F)(F)F)[C@H]42 (some centres undefined)
786-0
  GI50: 7.93 µM (inactive)
A498
  GI50: 1.82 µM (inactive)
A549
  GI50: 4.33 µM (inactive)
ACHN
  GI50: 4.21 µM (inactive)
CAKI-1
  GI50: 7.59 µM (inactive)
CCRF-CEM
  GI50: 3.88 µM (inactive)
COLO 205
  GI50: 6.67 µM (inactive)
DLD-1
  GI50: 5.41 µM (inactive)
DMS-114
  GI50: 4.19 µM (inactive)
DMS-273
  GI50: 0.989 µM (active)
EKVX
  GI50: 12 µM (inactive)
HCC 2998
  GI50: 1.75 µM (inactive)
HCT-116
  GI50: 2.43 µM (inactive)
HCT-15
  GI50: 7.93 µM
HL-60
  GI50: 0.363 µM (active)
HOP-18
  GI50: 6.3 µM (inactive)
HOP-62
  GI50: 5.96 µM (inactive)
HOP-92
  GI50: 2.15 µM (inactive)
HT-29
  GI50: 2.18 µM (inactive)
IGROV-1
  GI50: 2.16 µM (inactive)
K562
  GI50: 4.93 µM (inactive)
KM-20L2
  GI50: 3.92 µM (inactive)
KM12
  GI50: 5.74 µM (inactive)
LXFL 529
  GI50: 2.65 µM (inactive)
M14
  GI50: 3.54 µM (inactive)
M19-MEL
  GI50: 1.19 µM (inactive)
MOLT-4
  GI50: 0.998 µM (active)
Malme-3M
  GI50: 1.16 µM (inactive)
NCI-H226
  GI50: 2.02 µM (inactive)
NCI-H23
  GI50: 1.48 µM (inactive)
NCI-H460
  GI50: 1.03 µM (active)
NCI-H522
  GI50: 2.42 µM (inactive)
OVCAR-4
  GI50: 6.31 µM (inactive)
OVCAR-5
  GI50: 8.75 µM (inactive)
OVCAR-8
  GI50: 10.5 µM (inactive)
RPMI-8226
  GI50: 1.56 µM (inactive)
RXF 393
  GI50: 6.05 µM (inactive)
SF-268
  GI50: 8.81 µM (inactive)
SF-295
  GI50: 4.18 µM (inactive)
SF-539
  GI50: 1 µM (active)
SK-MEL-28
  GI50: 4.72 µM (inactive)
SK-MEL-2
  GI50: 8.26 µM (inactive)
SK-MEL-5
  GI50: 3.28 µM (inactive)
SK-OV-3
  GI50: 7.29 µM (inactive)
SN12C
  GI50: 8.69 µM (inactive)
SNB-19
  GI50: 3.62 µM (inactive)
SNB-75
  GI50: 7.8 µM (inactive)
SNB-78
  GI50: 9.1 µM (inactive)
SR
  GI50: 0.655 µM (active)
TK-10
  GI50: 7.74 µM (inactive)
U-251
  GI50: 4.41 µM (inactive)
UACC-257
  GI50: 7.03 µM (inactive)
UACC-62
  GI50: 2.05 µM (inactive)
UO-31
  GI50: 6.82 µM (inactive)
XF498
  GI50: 2.22 µM (inactive)

## CC(=O)OCC1OC(NC(=O)N(CCCl)N=O)C(OC(C)=O)C(OC(C)=O)C1OC(C)=O (centres undefined)
A498
  GI50: > 100 µM (inactive)
A549
  GI50: > 100 µM (inactive)
CAKI-1
  GI50: > 86.7 µM (inactive)
CCRF-CEM
  GI50: > 100 µM (inactive)
COLO 205
  GI50: > 100 µM (inactive)
DLD-1
  GI50: > 100 µM (inactive)
DMS-114
  GI50: > 100 µM (inactive)
DMS-273
  GI50: > 100 µM (inactive)
EKVX
  GI50: 54.8 µM (inactive)
HCC 2998
  GI50: > 100 µM (inactive)
HCT-116
  GI50: > 100 µM (inactive)
HCT-15
  GI50: > 100 µM
HL-60
  GI50: > 100 µM (inactive)
HOP-18
  GI50: > 100 µM (inactive)
HOP-62
  GI50: > 100 µM (inactive)
HOP-92
  GI50: > 100 µM (inactive)
HT-29
  GI50: > 100 µM (inactive)
IGROV-1
  GI50: > 100 µM (inactive)
K562
  GI50: > 100 µM (inactive)
KM-20L2
  GI50: > 100 µM (inactive)
KM12
  GI50: > 100 µM (inactive)
LOX IMVI
  GI50: 44.8 µM (inactive)
M19-MEL
  GI50: > 100 µM (inactive)
MCF7
  GI50: > 100 µM (inactive)
MOLT-4
  GI50: > 31.6 µM (inactive)
Malme-3M
  GI50: > 100 µM (inactive)
NCI-H226
  GI50: 3.86 µM (inactive)
NCI-H23
  GI50: > 100 µM (inactive)
NCI-H460
  GI50: > 83.8 µM (inactive)
NCI-H522
  GI50: > 100 µM (inactive)
NCI/ADR-RES
  GI50: > 100 µM (inactive)
OVCAR-3
  GI50: > 100 µM (inactive)
OVCAR-4
  GI50: > 100 µM (inactive)
OVCAR-5
  GI50: > 100 µM (inactive)
OVCAR-8
  GI50: > 100 µM (inactive)
RPMI-8226
  GI50: > 100 µM (inactive)
RXF 393
  GI50: > 100 µM (inactive)
SF-268
  GI50: > 80.9 µM (inactive)
SF-295
  GI50: 97.1 µM (inactive)
SF-539
  GI50: > 89.1 µM (inactive)
SK-MEL-28
  GI50: > 100 µM (inactive)
SK-MEL-2
  GI50: > 100 µM (inactive)
SK-MEL-5
  GI50: > 31.6 µM (inactive)
SK-OV-3
  GI50: > 100 µM (inactive)
SN12C
  GI50: > 100 µM (inactive)
SNB-19
  GI50: > 65.8 µM (inactive)
SNB-75
  GI50: 36.1 µM (inactive)
SNB-78
  GI50: > 100 µM (inactive)
SW-620
  GI50: > 100 µM (inactive)
U-251
  GI50: 98.4 µM (inactive)
UACC-257
  GI50: > 100 µM (inactive)
UACC-62
  GI50: 43.9 µM (inactive)
UO-31
  GI50: > 100 µM (inactive)
XF498
  GI50: 75.9 µM (inactive)
